Results reported in patent publication US11608320B2, “Oxazolidinone hydroxamic acid derivatives” (KUWAIT UNIVERSITY, priority 2020, dated 2023).
Like-named read-outs stand apart in the source and are kept apart here.

Assays:
[1] = biological target: T1, recombinant human 5-LO enzyme (Homo sapiens, UniProt P09917); assay: Direct 5-LO inhibitory activity in a cell-free assay (H2DCF-DA fluorescence); assay type: biochemical
T1 sequence (P09917 1-674): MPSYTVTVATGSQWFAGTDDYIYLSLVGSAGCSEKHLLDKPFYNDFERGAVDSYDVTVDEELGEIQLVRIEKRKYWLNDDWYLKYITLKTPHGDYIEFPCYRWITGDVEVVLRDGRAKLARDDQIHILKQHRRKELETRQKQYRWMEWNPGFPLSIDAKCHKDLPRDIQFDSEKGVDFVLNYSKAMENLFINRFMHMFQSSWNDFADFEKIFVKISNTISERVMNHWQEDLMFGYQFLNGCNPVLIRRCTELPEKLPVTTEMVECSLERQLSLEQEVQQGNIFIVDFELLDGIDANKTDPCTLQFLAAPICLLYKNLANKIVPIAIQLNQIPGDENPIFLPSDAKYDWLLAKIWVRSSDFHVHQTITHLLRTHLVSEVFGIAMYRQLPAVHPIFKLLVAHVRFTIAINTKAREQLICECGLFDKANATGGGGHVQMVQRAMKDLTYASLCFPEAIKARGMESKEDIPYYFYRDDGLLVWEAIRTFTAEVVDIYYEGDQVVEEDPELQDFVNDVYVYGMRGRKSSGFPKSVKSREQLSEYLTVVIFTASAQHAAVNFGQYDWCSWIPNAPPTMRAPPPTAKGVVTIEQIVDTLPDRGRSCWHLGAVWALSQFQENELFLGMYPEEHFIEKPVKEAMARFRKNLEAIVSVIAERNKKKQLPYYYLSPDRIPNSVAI
Procedure: H2DCF-DA (60 μM) was first pre-cleaved by incubating with 450 mU/ml recombinant human 5-LO enzyme in Tris buffer (containing 50 mM Tris, pH=7.5, 2 mM EDTA, 2 mM CaCl2), 1 mM dithiothreitol (DTT) and 0.6 U/ml glutathione peroxidase) for 10 min at room temperature. […] After 10 min incubation at room temperature, the reaction was started with the addition of 50 μl of the substrate solution (Tris buffer containing 20 μM ATP and 20 μM arachidonic acid). After a further 20 min, the reaction was terminated with 100 μl acetonitrile. Fluorescence was read at 500 nm excitation and 520 emission, with Novostar® microplate reader (BMG Labtech, Offenburg, Germany). Appropriate controls, including 100 μM nordihydroguaiaretic acid (NDGA), were included to isolate only the 5-LO-attributable, NDGA-inhibitable RFU values.

[2] = test system: 5-LO-dependent generation of leukotriene B4 (LTB4) from activated human whole blood; assay: Inhibition of LTB4 generation from LPS/FMLP-activated human whole blood; assay type: cell-based; settings: LPS-primed, FMLP-stimulated human whole blood; read-out: Inhibitory Activity IC50, Human whole blood LTB4
Procedure: Inhibition of LTB4 generation from human whole blood: All compounds were evaluated for inhibitory activity against 5-LO-dependent generation of leukotriene B4 (LTB4) from activated human whole blood. With ethical approval from the Health Sciences Center Ethical Committee of Kuwait University, heparinized fresh human blood samples from apparently healthy individuals were obtained from the Kuwait Central Blood Bank. Aliquots of 185 μl of whole blood were dispensed into each well of 96-well culture plate containing 5 μl of the priming agent, lipopolysaccharide (LPS) at a final concentration of 1 μg/ml. […] After further incubation for 15 min at 37° C., 5 μl of N-formylmethionyl-leucyl-phenylalanine (FMLP), at […] final concentration, was added to stimulate LT production. The reaction was stopped after 15 min, and the supernatants recovered by centrifugation and stored at −40° C. pending analysis of the LTB4 content.
(§1) Assay of released leukotrienes/β-hexoseaminidase enzyme: Appropriately diluted supernatants were assayed for the released LTs (LTB4 and LTC4), by the enzyme immunoassay (EIA) method using assay kits supplied by R&D Systems (Minneapolis, Minn., USA) and following the manufacturer's instructions.

[3] = test system: LTC4 release from isolated human monocytes; assay: Inhibition of LTC4 release from isolated human monocytes (A23187-stimulated); assay type: cell-based; settings: read-out: Inhibitory Activity IC50, Human monocyte LTC4
Procedure: Inhibition of LTC4 release from isolated human monocytes: Mononuclear cells were first isolated from heparinized fresh blood using the Ficoll-Hypaque gradient centrifugation method. Monocytes were subsequently purified by adherence to plastic according to standard protocols. The purity of the adherent monocytes (CD14+) was routinely confirmed by flow cytometry to be >95% and viability (by trypan blue exclusion method) was routinely >97%. Adherent monocytes were then washed and incubated in 190 μl culture medium RPMI-1640 supplemented with 100 U/ml penicillin, 100 μg/ml streptomycin and 10% heat-inactivated fetal bovine serum (Sigma-Aldrich, St Louis, Mo., USA). […] After a further incubation for 15 min, the culture supernatants were recovered by centrifugation and stored at −40° C. pending LTC4 determination.
as §1

[4] = test system: LTC4 release from IgE/antigen-activated mouse mast cells (BMMC); assay: Inhibition of LTC4 release in allergen/IgE-activated bone marrow-derived mouse mast cells; assay type: cell-based; settings: for IC50: IgE/antigen (DNP-BSA)-activated BMMC, read-out: Inhibitory Activity IC50, Mouse mast cell LTC4
Source text: (§2) Inhibition of LTC4 release and degranulation in allergen/IgE-activated bone marrow-derived mouse mast cells (BMMC): Bone marrow-derived mast cells (BMMC) were generated from pathogen-free 5-7 week old male Balb/c mice according to the method of Davis et al., [2004] (Davis, B. J., et al., (2004), Journal of Immunology, 173: 6914-6920). Essentially, bone marrow cells were obtained by flushing of the femoral bone marrow and cultured in RPMI 1640 medium supplemented with 10% FBS, 100 U/ml penicillin, and 100 μg/ml streptomycin, 25 mM HEPES, 1.0 mM sodium pyruvate, 0.1 mM nonessential amino acids, 0.0035% 2-mercaptoethanol, and 30 ng/ml mouse recombinant IL-3, with culture medium replaced every two days. Cells were used after 4-8 weeks of culture, by which time at least 97% of the cells would have differentiated into mast cells.
(§3) The generated BMMCs were seeded at 5×10^4 cells/well in a 96-well flat-bottom culture plate and passively sensitized overnight with 0.5 μg/ml anti-DNP monoclonal IgE antibody (clone SPE-7, Sigma-Aldrich, St. Louis, Mo., USA). The cells were then washed twice to remove any unbound antibody and subsequently re-suspended in reaction buffer (135 mM NaCl, 5 mM KCl, 1.8 mM CaCl2), 1 mM MgCl2, 5.6 mM glucose, 0.05% BSA and 20 mM HEPES, pH 7.4). They were then pre-incubated with the test compounds (0.01-30 μM) or the solvent (0.05% DMSO) for 15 min before being stimulated with the specific antigen, DNP-BSA (30 ng/ml). After 30 min incubation at 37° C., the amount of LTC4 released into the supernatant (as index of 5-LO activity) was determined by ELISA as described below.
as §1

[5] = test system: isolated human monocytes; assay: In vitro toxicity testing (MTT viability); assay type: cell-based; settings: concentrations up to 50 μM, 3 h or 24 h, n=3
Procedure: In Vitro Toxicity Testing: Adherent human monocytes, prepared as described above, were used. The cells were cultured with various concentrations of the test compounds or vehicle, or with 0.05% Triton-X as positive control for 3 h or 24 h. At the end of the culture, cell viability was determined using the MTT (3-(4,5 dimethylthiazol-2-yl)-2,5-diphenyltetrazolium bromide) assay method. Briefly, 15 μl of the MTT solution (5 mg/ml) was added to each well, and incubated at 37° C. for 4 h. After removing the supernatant, 200 μl of dimethylsulfoxide (DMSO) was added to dissolve the crystals. Absorbance at 570 nm was then measured in a microplate reader. Viability was expressed as percentage of the vehicle-treated cells.

[6] = test system: degranulation of bone marrow-derived mouse mast cells; assay: Inhibition of degranulation (β-hexoseaminidase release) in allergen/IgE-activated BMMC; assay type: cell-based; settings: anti-DNP IgE sensitized, DNP-BSA 30 ng/ml, 30 min
Source text: as §2
as §3, with “They were then pre-incubated with the test compounds (0.01-30 μM) or the solvent (0.05% DMSO) for 15 min before being stimulated with the specific antigen, DNP-BSA (30 ng/ml).” left out
The concurrently-released granular enzyme, β-hexoseaminidase (as index of degranulation) was determined as described below.
The beta-hexoseaminidase released into the supernatant by the degranulating BMMCs was determined colorimetrically using p-nitrophenyl-N-acetyl-β-D-glucosaminide as substrate. […] The absorbance of the colored product (p-nitrophenol) was then read at 405 nm in a microplate reader. Results were expressed as percentage of the total cell content (determined in cells lysed with 0.1% triton-x-100).

[7] = test system: zymosan-induced peritonitis; assay: Zymosan-induced peritoneal inflammation in mice; assay type: in vivo, mouse; settings: 30 min before zymosan i.p., peritoneal exudate at 2 h
Source text: Inhibition of zymosan-induced peritoneal inflammation in mice: Female Balb/c mice, 6-8 weeks old, obtained from the Animal Resources Center of the Health Sciences Center, Kuwait University, were used. They were maintained under temperature-controlled conditions with an artificial 12-h light/dark cycle and allowed standard chow and water ad libitum. The study protocol was approved by the “Health Sciences Center Animal Welfare Committee” and complied with the “Guidelines for the Care and Use of Laboratory Animals” of the Health Sciences Centre, Kuwait University. The zymosan-induced peritonitis model-a recognized LT-mediated inflammatory reaction, described particularly in Hanke et al., 2013 ([…]., et al. (2013). Journal of medicinal chemistry, 56(22), 9031-9044) was used. […] After 30 min, all groups were injected intraperitonally with 0.2 ml of activated zymosan (2 mg/ml) except the control group that received 0.2 ml PBS. After 2 h, all animals were killed and the peritoneal exudate was collected by washing the cavity with 3 ml of heparinized (10 IU/ml) PBS.

[8] = cell-free, recombinant human 5-LO, read-out: Inhibitory Activity IC50, Human recomb. 5-LO

IC50 [1] | IC50 [2] | IC50 ([3]; Monocyte) | IC50 ([4]; Mus musculus) | IC50 [1, 8] | Compound | also measured
3.5 µM | 1.3 µM | 7.5 µM | 8.7 µM |  | O=C(C1CC1)N(O)C[C@H]1CN(c2ccc(N3CCOCC3)c(F)c2)C(=O)O1 [PH-211] | 
> 30 µM | 3.3 µM | 18.7 µM | 20.7 µM |  | CC(=O)N(O)C[C@H]1CN(c2ccc(N3CCOCC3)c(F)c2)C(=O)O1 [PH-23] | 
3.9 µM | 2.3 µM | 14.1 µM | 13.8 µM |  | CC(C)C(=O)N(O)C[C@H]1CN(c2ccc(N3CCOCC3)c(F)c2)C(=O)O1 [PH-205] | 
 |  |  |  | 3.4 µM | CCCCCC(=O)N(O)C[C@H]1CN(c2ccc(N3CCOCC3)c(F)c2)C(=O)O1 [PH-247, (R)—N-((3-(3-fluoro-4-morpholinophenyl)-2-oxooxazolidin-5-yl)methyl)-N-hydroxyhexanamide] | Effect on viability of isolated human monocytes (MTT) [5]: no significant effect on cell viability; melting point: 118.5 to 120.5 °C
 | 1.5 µM |  |  | 21.6 µM | CCCCCC(=O)ON(C[C@H]1CN(c2ccc(N3CCOCC3)c(F)c2)C(=O)O1)C(=O)CCCCC [PH-246] | IC50 [3]: 7.1 µM; IC50 [4]: 3.3 µM
 |  |  |  |  | CC(c1cc2ccccc2s1)N(O)C(N)=O (racemic) [Zileuton, (±)1-(1-(benzo[b]thiophen-2-yl)ethyl)-1-hydroxyurea, reference compound] | Inhibition of generation of LTC4 from IgE/allergen-activated mast cells (FIG. 2A) ([4]; BMMC, anti-DNP IgE sensitized, DNP-BSA 30 ng/ml, 30 min): equally effective in inhibiting the generation of LTC4; Inhibition of degranulation (release of granular β-hexoseaminidase) (FIG. 2B) [6]: only the representative compounds were able to inhibit degranulation; Net Exudate Vol ([7]; 3 mg/kg s.c.): 0.14 ± 0.04 mL; Total Cell No ([7]; 3 mg/kg s.c.): 16.7 ± 2.8 ×10^6; Total LTC4 ([7]; 3 mg/kg s.c.): 71.0 ± 12.4 ng; Net Exudate Vol ([7]; 10 mg/kg s.c.): 0.20 ± 0.07 mL; Total Cell No ([7]; 10 mg/kg s.c.): 24.9 ± 2.1 ×10^6; Total LTC4 ([7]; 10 mg/kg s.c.): 97.2 ± 47.3 ng; Net Exudate Vol ([7]; 30 mg/kg s.c.): no significant effect on exudate volume; Total Cell No ([7]; 30 mg/kg s.c.): 19.1 ± 4.4 ×10^6; Total LTC4 ([7]; 30 mg/kg s.c.): 48.3 ± 9.8 ng; Net Exudate Vol ([7]; 30 mg/kg s.c., listed as Zil): 0.10 ± 0.05 mL
 | 7.9 µM | > 50 µM | 37.3 µM | > 30 µM | O=C(ON(C[C@H]1CN(c2ccc(N3CCOCC3)c(F)c2)C(=O)O1)C(=O)C1CC1)C1CC1 [PH-206] | 
 | 10.7 µM | > 50 µM | 21.8 µM | > 30 µM | CC(C)C(=O)ON(C[C@H]1CN(c2ccc(N3CCOCC3)c(F)c2)C(=O)O1)C(=O)C(C)C [PH-204] | 
11.8 µM | 1.4 µM | 8.2 µM | 6.3 µM |  | CCC(=O)N(O)C[C@H]1CN(c2ccc(N3CCOCC3)c(F)c2)C(=O)O1 [PH-199] | 
 | 7.9 µM | 30.7 µM | 23.8 µM | 14.7 µM | NC(=O)N(O)C[C@H]1CN(c2ccc(N3CCOCC3)c(F)c2)C(=O)O1 [PH-238, (R)-1-((3-(3-fluoro-4-morpholinophenyl)-2-oxooxazolidin-5-yl)methyl)-1-hydroxyurea] | melting point: 125 to 128 °C
